Data: the NIST ThermoML archive (doi:10.1016/j.jct.2016.01.017)
Numbers after ± are expanded uncertainties.

Assay: activity coefficient (dimensionless); of the first substance listed, at infinite dilution; xn = mol fraction of the nth substance listed
Conditions: 100 kPa, Liquid, Chromatography, x1 = 0

Cc1ccccc1C [1,2-dimethylbenzene] + CCCC[n+]1ccc(C#N)cc1.O=S(=O)([N-]S(=O)(=O)C(F)(F)F)C(F)(F)F
activity coefficient (308.15 K): 1.79 ± 0.15
activity coefficient (318.15 K): 1.89 ± 0.16
activity coefficient (328.15 K): 2 ± 0.17
activity coefficient (338.15 K): 2.1 ± 0.18
activity coefficient (348.15 K): 2.21 ± 0.19
activity coefficient (358.15 K): 2.3 ± 0.2
activity coefficient (368.15 K): 2.39 ± 0.21

Cc1cccc(C)c1 [1,3-dimethylbenzene] + CCCC[n+]1ccc(C#N)cc1.O=S(=O)([N-]S(=O)(=O)C(F)(F)F)C(F)(F)F
activity coefficient (308.15 K): 2.13 ± 0.18
activity coefficient (318.15 K): 2.25 ± 0.19
activity coefficient (328.15 K): 2.37 ± 0.2
activity coefficient (338.15 K): 2.49 ± 0.21
activity coefficient (348.15 K): 2.6 ± 0.22
activity coefficient (358.15 K): 2.71 ± 0.23
activity coefficient (368.15 K): 2.83 ± 0.24

Cc1ccc(C)cc1 [1,4-dimethylbenzene] + CCCC[n+]1ccc(C#N)cc1.O=S(=O)([N-]S(=O)(=O)C(F)(F)F)C(F)(F)F
activity coefficient (308.15 K): 2.15 ± 0.19
activity coefficient (318.15 K): 2.28 ± 0.2
activity coefficient (328.15 K): 2.4 ± 0.21
activity coefficient (338.15 K): 2.52 ± 0.22
activity coefficient (348.15 K): 2.65 ± 0.23
activity coefficient (358.15 K): 2.77 ± 0.24
activity coefficient (368.15 K): 2.89 ± 0.25

C1COCCO1 [1,4-dioxane] + CCCC[n+]1ccc(C#N)cc1.O=S(=O)([N-]S(=O)(=O)C(F)(F)F)C(F)(F)F
activity coefficient (308.15 K): 0.419 ± 0.041
activity coefficient (318.15 K): 0.461 ± 0.044
activity coefficient (328.15 K): 0.502 ± 0.046
activity coefficient (338.15 K): 0.544 ± 0.049
activity coefficient (348.15 K): 0.587 ± 0.052
activity coefficient (358.15 K): 0.631 ± 0.055
activity coefficient (368.15 K): 0.676 ± 0.058

C=CCCCCCCCC [1-decene] + CCCC[n+]1ccc(C#N)cc1.O=S(=O)([N-]S(=O)(=O)C(F)(F)F)C(F)(F)F
activity coefficient (308.15 K): 59.4 ± 5.1
activity coefficient (318.15 K): 57.3 ± 5
activity coefficient (328.15 K): 55.2 ± 4.8
activity coefficient (338.15 K): 53.5 ± 4.6
activity coefficient (348.15 K): 51.8 ± 4.5
activity coefficient (358.15 K): 50.4 ± 4.4
activity coefficient (368.15 K): 49 ± 4.2

C=CCCCCC [1-heptene] + CCCC[n+]1ccc(C#N)cc1.O=S(=O)([N-]S(=O)(=O)C(F)(F)F)C(F)(F)F
activity coefficient (308.15 K): 21.3 ± 1.8
activity coefficient (318.15 K): 20.7 ± 1.8
activity coefficient (328.15 K): 20 ± 1.7
activity coefficient (338.15 K): 19.5 ± 1.7
activity coefficient (348.15 K): 19 ± 1.6
activity coefficient (358.15 K): 18.5 ± 1.6
activity coefficient (368.15 K): 18.1 ± 1.6

C#CCCCCC [1-heptyne] + CCCC[n+]1ccc(C#N)cc1.O=S(=O)([N-]S(=O)(=O)C(F)(F)F)C(F)(F)F
activity coefficient (308.15 K): 6.92 ± 0.6
activity coefficient (318.15 K): 7.02 ± 0.61
activity coefficient (328.15 K): 7.11 ± 0.61
activity coefficient (338.15 K): 7.21 ± 0.62
activity coefficient (348.15 K): 7.3 ± 0.63
activity coefficient (358.15 K): 7.39 ± 0.64
activity coefficient (368.15 K): 7.48 ± 0.65

C#CCCCC [1-hexyne] + CCCC[n+]1ccc(C#N)cc1.O=S(=O)([N-]S(=O)(=O)C(F)(F)F)C(F)(F)F
activity coefficient (308.15 K): 4.81 ± 0.41
activity coefficient (318.15 K): 4.91 ± 0.42
activity coefficient (328.15 K): 5.01 ± 0.43
activity coefficient (338.15 K): 5.1 ± 0.44
activity coefficient (348.15 K): 5.19 ± 0.45
activity coefficient (358.15 K): 5.28 ± 0.46
activity coefficient (368.15 K): 5.36 ± 0.46

CCC[N+](=O)[O-] [1-nitropropane] + CCCC[n+]1ccc(C#N)cc1.O=S(=O)([N-]S(=O)(=O)C(F)(F)F)C(F)(F)F
activity coefficient (308.15 K): 0.74 ± 0.063
activity coefficient (318.15 K): 0.768 ± 0.065
activity coefficient (328.15 K): 0.796 ± 0.067
activity coefficient (338.15 K): 0.824 ± 0.069
activity coefficient (348.15 K): 0.851 ± 0.071
activity coefficient (358.15 K): 0.877 ± 0.073
activity coefficient (368.15 K): 0.904 ± 0.075

C#CCCCCCC [1-octyne] + CCCC[n+]1ccc(C#N)cc1.O=S(=O)([N-]S(=O)(=O)C(F)(F)F)C(F)(F)F
activity coefficient (308.15 K): 10.1 ± 0.9
activity coefficient (318.15 K): 10.2 ± 0.9
activity coefficient (328.15 K): 10.3 ± 0.9
activity coefficient (338.15 K): 10.3 ± 0.9
activity coefficient (348.15 K): 10.4 ± 0.9
activity coefficient (358.15 K): 10.4 ± 0.9
activity coefficient (368.15 K): 10.5 ± 0.9

C=CCCC [1-pentene] + CCCC[n+]1ccc(C#N)cc1.O=S(=O)([N-]S(=O)(=O)C(F)(F)F)C(F)(F)F
activity coefficient (308.15 K): 11.5 ± 1
activity coefficient (318.15 K): 10.9 ± 0.9
activity coefficient (328.15 K): 10.3 ± 0.9
activity coefficient (338.15 K): 9.83 ± 0.85
activity coefficient (348.15 K): 9.41 ± 0.81
activity coefficient (358.15 K): 9.02 ± 0.78
activity coefficient (368.15 K): 8.65 ± 0.75

C#CCCC [1-pentyne] + CCCC[n+]1ccc(C#N)cc1.O=S(=O)([N-]S(=O)(=O)C(F)(F)F)C(F)(F)F
activity coefficient (308.15 K): 3.4 ± 0.29
activity coefficient (318.15 K): 3.48 ± 0.3
activity coefficient (328.15 K): 3.56 ± 0.31
activity coefficient (338.15 K): 3.64 ± 0.31
activity coefficient (348.15 K): 3.7 ± 0.3
activity coefficient (358.15 K): 3.77 ± 0.33
activity coefficient (368.15 K): 3.84 ± 0.33

CC(C)CC(C)(C)C [2,2,4-trimethylpentane] + CCCC[n+]1ccc(C#N)cc1.O=S(=O)([N-]S(=O)(=O)C(F)(F)F)C(F)(F)F
activity coefficient (308.15 K): 46.5 ± 4
activity coefficient (318.15 K): 42.9 ± 3.7
activity coefficient (328.15 K): 39.8 ± 3.4
activity coefficient (338.15 K): 37 ± 3.2
activity coefficient (348.15 K): 34.7 ± 3
activity coefficient (358.15 K): 32.5 ± 2.8
activity coefficient (368.15 K): 30.7 ± 2.7

CCC(C)(C)C [2,2-dimethylbutane] + CCCC[n+]1ccc(C#N)cc1.O=S(=O)([N-]S(=O)(=O)C(F)(F)F)C(F)(F)F
activity coefficient (308.15 K): 34.9 ± 3
activity coefficient (318.15 K): 31.3 ± 2.7
activity coefficient (328.15 K): 28.2 ± 2.4
activity coefficient (338.15 K): 25.6 ± 2.2
activity coefficient (348.15 K): 23.4 ± 2
activity coefficient (358.15 K): 21.4 ± 1.9
activity coefficient (368.15 K): 19.7 ± 1.7
